Target: T1, Chk1 (Homo sapiens, UniProt O14757)
T1 sequence (O14757 1-476): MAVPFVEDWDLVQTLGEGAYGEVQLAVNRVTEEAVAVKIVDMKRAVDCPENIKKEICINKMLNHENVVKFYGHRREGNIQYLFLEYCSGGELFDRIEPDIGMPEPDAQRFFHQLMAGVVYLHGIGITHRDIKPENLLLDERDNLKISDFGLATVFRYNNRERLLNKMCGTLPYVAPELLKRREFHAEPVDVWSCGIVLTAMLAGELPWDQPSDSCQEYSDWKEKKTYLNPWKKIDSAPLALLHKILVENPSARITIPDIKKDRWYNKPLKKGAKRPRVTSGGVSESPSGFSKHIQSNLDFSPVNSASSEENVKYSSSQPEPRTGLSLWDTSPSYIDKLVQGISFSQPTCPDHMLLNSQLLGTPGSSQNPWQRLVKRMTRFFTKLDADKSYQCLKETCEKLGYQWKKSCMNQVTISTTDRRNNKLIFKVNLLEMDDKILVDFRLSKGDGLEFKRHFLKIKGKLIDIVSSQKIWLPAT
Assay: Chk1 biochemical assay (CHK1/substrate peptide filter binding)
Conditions: 60 μM ATP, 0.75 nM Chk1 enzyme
Experimental: The effect of compounds on Chk1 biochemical activity can be determined using a CHK1/substrate peptide filter binding assay. In this assay, a synthetic peptide based on the amino acid sequence residues 206-225 of Cdc25, is used as a phospho-acceptor substrate for recombinant Chk1 protein kinase. Using γ-^33P-ATP as the phospho-donor substrate, Chk1 transfers the radioactive γ-^33phosphate group to the synthetic peptide. The reaction is measured by capturing the peptide substrate on a cation exchange paper filter plate and scintillation counting of emitted beta particles.
The kinase reactions (40 μL reaction volumes) are performed in 96-well V-bottom polystyrene plates. Reactions are initiated with the addition of Chk1 enzyme. […]
Following Chk1 enzyme addition, the reactions are incubated at room temperature for 90 min, and then terminated with the addition of 140 μL of phosphoric acid. […] After sitting for 4 h at room temperature, the radioactivity in the plate is measured using a MicroBeta Trilux microplate scintillation counter (Perkin Elmer).
For IC50 determination, the percent inhibition for each concentration is calculated using the scintillation count ratio from controls run on each plate. […] Absolute IC50 values are calculated from the resulting curve. […]

With `COc1nc(C)ccc1-c1cc(Nc2cncc(O[C@@H]3CCCNC3)n2)[nH]n1` [Example 1, (R)-[5-(2-Methoxy-6-methyl-pyridin-3-yl)-2H-pyrazol-3-yl]-[6-(piperidin-3-yloxy)-pyrazin-2-yl]-amine] the IC50 was under 1 nM.

Reference: US9067920B2, “Compounds useful for inhibiting Chk1” (Eli Lilly and Company, priority 2010, dated 2015)
